Data published in ChEMBL document CHEMBL1201862, “PubChem BioAssay data set” (2004).
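Cells were grown in 96-well plates and exposed to each compound for 48 hours at five concentrations; endpoints were interpolated linearly between bracketing concentrations, or set to the highest concentration if not reached. The concentration for 50% growth inhibition is given as GI50.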 Calls of active or inactive are those of the source. No stated cut-off is given here; in the data, active = GI50 up to about 1.1 µM and inactive = higher.

How the values were obtained:
Experiment in all cases: NCI-60 cell line screen, 48 h
UACC-257 = test system: UACC-257
RPMI-8226 = test system: RPMI-8226
SF-268 = test system: SF-268
SK-MEL-2 = test system: SK-MEL-2
MDA-MB-435 = test system: MDA-MB-435
OVCAR-8 = test system: OVCAR-8
A498 = test system: A498
MDA-MB-231 = test system: MDA-MB-231
Malme-3M = test system: Malme-3M
NCI/ADR-RES = test system: NCI/ADR-RES
BT-549 = test system: BT-549
CCRF-CEM = test system: CCRF-CEM
NCI-H226 = test system: NCI-H226
NCI-H23 = test system: NCI-H23
SK-MEL-5 = test system: SK-MEL-5
SR = test system: SR
HL-60 = test system: HL-60
MOLT-4 = test system: MOLT-4
HCT-15 = test system: HCT-15
SNB-19 = test system: SNB-19

SMILES: Oc1c(C(Nc2ccccn2)c2ccccc2)ccc2cccnc12 (stereo not given)
- GI50 (UACC-257): 7.8 µM (inactive)
- GI50 (RPMI-8226): 2.56 µM (inactive)
- GI50 (SF-268): 2.94 µM (inactive)
- GI50 (SK-MEL-2): 3.55 µM (inactive)
- GI50 (MDA-MB-435): 5.73 µM (inactive)
- GI50 (OVCAR-8): 4.01 µM (inactive)
- GI50 (A498): 10.2 µM (inactive)
- GI50 (MDA-MB-231): 3.08 µM (inactive)
- GI50 (Malme-3M): 1.46 µM (inactive)
- GI50 (NCI/ADR-RES): 1.82 µM (inactive)
- GI50 (BT-549): 5.25 µM (inactive)
- GI50 (CCRF-CEM): 1.37 µM (inactive)
- GI50 (NCI-H226): 2.59 µM (inactive)
- GI50 (NCI-H23): 3.6 µM (inactive)
- GI50 (SK-MEL-5): 3.66 µM (inactive)
- GI50 (SR): 2.31 µM (inactive)
- GI50 (HL-60): 2.28 µM (inactive)
- GI50 (MOLT-4): 2.39 µM (inactive)
- GI50 (HCT-15): 1.98 µM
- GI50 (SNB-19): 5.51 µM (inactive)

SMILES: CCCCCC(O)C1C(=O)OC(C)C(O)/C=C/C=C/C=C/C=C\C=C(\C)C(O)CC(O)CC(O)CC(O)CC(O)CC(O)CC1O (stereo not given)
- GI50 (UACC-257): 34.6 µM (inactive)
- GI50 (RPMI-8226): > 50 µM (inactive)
- GI50 (SF-268): > 50 µM (inactive)
- GI50 (SK-MEL-2): > 50 µM (inactive)
- GI50 (MDA-MB-435): > 50 µM (inactive)
- GI50 (OVCAR-8): > 50 µM (inactive)
- GI50 (A498): > 50 µM (inactive)
- GI50 (MDA-MB-231): > 50 µM (inactive)
- GI50 (Malme-3M): > 50 µM (inactive)
- GI50 (NCI/ADR-RES): > 50 µM (inactive)
- GI50 (BT-549): > 50 µM (inactive)
- GI50 (CCRF-CEM): > 50 µM (inactive)
- GI50 (NCI-H226): > 50 µM (inactive)
- GI50 (NCI-H23): > 50 µM (inactive)
- GI50 (SK-MEL-5): > 50 µM (inactive)
- GI50 (SR): > 50 µM (inactive)
- GI50 (HL-60): > 50 µM (inactive)
- GI50 (MOLT-4): > 50 µM (inactive)
- GI50 (HCT-15): > 50 µM
- GI50 (SNB-19): > 50 µM (inactive)

SMILES: CN1C(=O)c2ccccc2OC12C=Cc1c(ccc3ccccc13)O2 (stereo not given)
- GI50 (UACC-257): 8.3 µM (inactive)
- GI50 (RPMI-8226): 3.02 µM (inactive)
- GI50 (SF-268): 3.78 µM (inactive)
- GI50 (SK-MEL-2): 3.34 µM (inactive)
- GI50 (MDA-MB-435): 2.29 µM (inactive)
- GI50 (OVCAR-8): 3.74 µM (inactive)
- GI50 (A498): 12.9 µM (inactive)
- GI50 (MDA-MB-231): 13.1 µM (inactive)
- GI50 (Malme-3M): 0.328 µM (active)
- GI50 (NCI/ADR-RES): 2.38 µM (inactive)
- GI50 (BT-549): 5.96 µM (inactive)
- GI50 (CCRF-CEM): 3.83 µM (inactive)
- GI50 (NCI-H226): 5.94 µM (inactive)
- GI50 (NCI-H23): 4.05 µM (inactive)
- GI50 (SK-MEL-5): 6.05 µM (inactive)
- GI50 (SR): 3.48 µM (inactive)
- GI50 (HL-60): 2.99 µM (inactive)
- GI50 (MOLT-4): 3.53 µM (inactive)
- GI50 (HCT-15): 2.95 µM
- GI50 (SNB-19): 4.49 µM (inactive)

SMILES: CN(C)CCCNc1ccc2ncn3c4ccc(O)cc4c(=O)c1c23
- GI50 (UACC-257): 8.09 µM (inactive)
- GI50 (RPMI-8226): 1.58 µM (inactive)
- GI50 (SF-268): 0.957 µM (active)
- GI50 (SK-MEL-2): 6.21 µM (inactive)
- GI50 (MDA-MB-435): 4.88 µM (inactive)
- GI50 (OVCAR-8): 1.07 µM (active)
- GI50 (A498): 0.697 µM (active)
- GI50 (MDA-MB-231): 7.46 µM (inactive)
- GI50 (Malme-3M): 2.83 µM (inactive)
- GI50 (NCI/ADR-RES): 12.4 µM (inactive)
- GI50 (BT-549): 17.3 µM (inactive)
- GI50 (CCRF-CEM): 0.218 µM (active)
- GI50 (NCI-H226): 0.483 µM (active)
- GI50 (NCI-H23): 0.716 µM (active)
- GI50 (SK-MEL-5): 0.64 µM (active)
- GI50 (SR): < 0.0189 µM (active)
- GI50 (HL-60): 0.277 µM (active)
- GI50 (MOLT-4): 0.0406 µM (active)
- GI50 (HCT-15): 1.91 µM
- GI50 (SNB-19): 1.24 µM (inactive)
